Laboratory results from US9642829B2, “Antifungal compound and uses thereof” (The University of Hong Kong, priority 2012, dated 2017).

Assays:
[1] = system: C. albicans SC5314 and C. albicans ATCC 90028; assay: Antifungal activity compared with caspofungin and amphotericin B (FIG. 2, CLSI M44-A disc diffusion); assay type: cell-based, Candida albicans
Excerpt: (§1) Oral Biosciences laboratory has one of the largest collections of fungal isolates, particular that of Candida species in the world. In our previous studies, we have found multidrug resistant clinical isolates of Candida species against existing antifungals. In particular, some of these strains are resistant to best antifungal agents to date such as caspofungin, amphotericin B and fluconazole. Therefore, we performed antifungal susceptibility testing for SM21 against these drug resistant Candida isolates suing CLSI M27A brothmicrodultion assay and CLSI M44-A disc diffusion assay.

Vero cell line = assay: Cytotoxicity assay; assay type: cell-based; settings: at effective concentration
resistant isolate T-1549 = assay: Antifungal activity compared with caspofungin and amphotericin B (FIG. 2, CLSI M44-A disc diffusion); assay type: cell-based, C. guilliermondii; settings: resistant isolate T-1549 (FIG. 2C)
Excerpt: as §1

C. glabrata = assay: Antifungal susceptibility (MIC/MFC), CLSI criteria; assay type: cell-based, Candida glabrata; settings: C. glabrata ATCC; 0.5 McFarland inoculum (10^6 cells/ml)
Description: (§2) Antifungal activity of the small molecules was evaluated using USA standards, Clinical and Laboratory Standards Institute (CLSI) criteria. In brief, inocula from 24 h Candida cultures on Sabourauds's dextore agar were standardized to a turbidity equivalent of 0.5 McFarland standards at 520 nm with a spectrophotometer. The suspensions were further diluted in Rosewell Park Memorial Institute (RPMI) 1640 medium (Life technologies, New York, USA) to yield an inoculum concentration of approximately 0.5 1×10^3 to 2.5 1×10^3 cells/ml. Minimum inhibitory concentration (MIC) and minimum fungicidal concentration (MFC) assay was performed in 96-well plates (Iwaki, Tokyo, Japan) and each of the Candida species was exposed to a double dilution of SM21. Amphotericin B was used as a positive control. All the experiments were preformed three occasions with duplicates for all isolates. The plates were incubated at 35° C. for 48 h to evaluate MIC. In the case of Cryotococcus neoformans, reading were taken after 72 h. Aforementioned assay was performed for C. albicans ATCC 90028, C. albicans SC5314 and 10 C. albicans clinical isolates. Moreover, MIC/MFC determination was carried out for other fungal species such as C. glabrata, C. krusei, C. tropicalis, C. parapsilosis, C. neoformans, Aspergillus fumigates and Penicillium marneffei. […]

human monocytes = assay: Cytotoxicity assay (MTT reduction, FIG. 6); assay type: cell-based; settings: primary human monocytes; at effective concentration
Description: (§3) FIG. 6. MTT reduction assay of primary culture human monocytes, gingival fibroblasts and oral keratinocytes showing safety of SM21.
(§4) Next, we used mouse model and treated the animals with 100 times of the effective dose (2 μg) i.e. 200 μg of SM21 twice a day for five days.

[2] = system: human gingival fibroblasts; assay: Cytotoxicity assay (MTT reduction, FIG. 6); assay type: cell-based; settings: primary human gingival fibroblasts; at effective concentration
Description: as §3, §4

human oral keratinocytes = assay: Cytotoxicity assay (MTT reduction, FIG. 6); assay type: cell-based; settings: primary human oral keratinocytes; at effective concentration
Description: as §3, §4

C. albicans = assay: Dose-dependent assay of MIC/MFC at different cell densities; assay type: cell-based, Candida albicans; design: unit not given here
Description: Antifungal activity of the small molecules was evaluated using USA standards, Clinical and Laboratory Standards Institute (CLSI) criteria. In brief, inocula from 24 h Candida cultures on Sabourauds's dextore agar were standardized to a turbidity equivalent of 0.5 McFarland standards at 520 nm with a spectrophotometer. The suspensions were further diluted in Rosewell Park Memorial Institute (RPMI) 1640 medium (Life technologies, New York, USA) to yield an inoculum concentration of approximately 0.5 1×10^3 to 2.5 1×10^3 cells/ml. Minimum inhibitory concentration (MIC) and minimum fungicidal concentration (MFC) assay was performed in 96-well plates (Iwaki, Tokyo, Japan) and each of the Candida species was exposed to a double dilution of SM21. Amphotericin B was used as a positive control. All the experiments were preformed three occasions with duplicates for all isolates. The plates were incubated at 35° C. for 48 h to evaluate MIC. In the case of Cryotococcus neoformans, reading were taken after 72 h. Aforementioned assay was performed for C. albicans ATCC 90028, C. albicans SC5314 and 10 C. albicans clinical isolates. Moreover, MIC/MFC determination was carried out for other fungal species such as C. glabrata, C. krusei, C. tropicalis, C. parapsilosis, C. neoformans, Aspergillus fumigates and Penicillium marneffei. […] Next using dose-dependent assay we tested that MIC/MFC of SM21 from 10^3 cells/ml to 10^7 cells/ml of C. albicans (Table 2). Each of the foregoing experiment was repeated on three different occasions.

[3] = system: Candida albicans invasion of human oral keratinocytes; assay: Candida-human oral keratinocytes co-culture model; assay type: cell-based; settings: 1×10^4 cells/ml C. albicans with human oral keratinocytes, 24-h incubation
Description: We also examined the ability of SM21 to inhibit invasion of Candida albicans in Candida-human oral keratinocytes co-culture model. Primary human oral keratinocytes (ScienCell Research Laboratories™, Carlsbad, Calif., USA) at passage two were cultured using Defined Keratinocyte-Serum Free Medium (Gibco, Grand Island, N.Y., USA) which contained 0.2% Defined Keratinocyte-SFM Growth Supplement (Gibco) and 1% penicillin/streptomycin solution. Cells were incubated at 37° C. in a humidified atmosphere with 5% CO2 and 95% air. Yeast cells for inoculation were cultured for 24 h at 37° C. on Sabouraud dextrose agar (Difco, Hampshire, England). A sample of the culture was washed thrice in PBS and an inoculum of approximately 2×10^5 cells was suspended in 10 ml of YPG medium (1% yeast extract, 2% peptone and 2% glucose; Difco, Detroit, Mich.). The suspension was cultured for 18 h at 37° C. with orbital shaking and the cells were harvested, washed in 0.9% NaCl and a sample of cells was resuspended in fresh medium in a shaker for 24 h at 37° C. Afterwards the cells were harvested by centrifuge and the inocula were prepared in phosphate buffered saline (PBS, pH 7.2). Human oral keratinocytes were grown to 80-90% confluence in u-Slide 8-well plates (ibidi GmbH Integrated BioDiagnostics, Martinsried, Germany). […]

C. parapsilosis = assay: Antifungal susceptibility (MIC/MFC), CLSI criteria; assay type: cell-based, Candida parapsilosis; settings: C. parapsilosis ATCC; 0.5 McFarland inoculum (10^6 cells/ml)
Description: as §2

[4] = system: Lactobacillus acidophilus; assay: Antibacterial activity (FIG. 3); assay type: cell-based; settings: dose of 2 μg
Description: (§5) FIGS. 3A-C. Antibacterial activity of SM21 at dose of 2 μg was examined for three bacterial species together with other antifungal agents caspofungin, amphotericin B and chlorhexidine. (A) Lactobacillus acidophilus (B) Streptococcus mutans and (C) Escherichia coli were used for the experiments.
as §1

Escherichia coli = assay: Antibacterial activity (FIG. 3); assay type: cell-based; settings: dose of 2 μg
Description: as §5, §1

Streptococcus mutans = assay: Antibacterial activity (FIG. 3); assay type: cell-based; settings: dose of 2 μg
Description: as §5, §1

`CN(C)c1ccc(/C=C/c2cc(C(C)(C)C)[o+]c(C(C)(C)C)c2)cc1.[O-][Cl+3]([O-])([O-])[O-]` [SM21] was tested, and the “Susceptibility of the strain to the agent” value ([1]; C. albicans ATCC 90028, CLSI quality control strain (FIG. 2B)) was “susceptible”, the “Susceptibility of the strain to the agent” value ([1]; C. albicans SC5314 (FIG. 2A)) was “susceptible” and the Cytotoxicity (Vero cell line) was “no cytotoxicity”. For the same compound, the “Effectiveness against resistant isolate” value (resistant isolate T-1549) was “effective”, the “Susceptibility (MIC90)” value (C. glabrata) was 1.6 µg/mL and the Cytotoxicity (human monocytes) was “no cytotoxicity”. For the same compound, the Cytotoxicity [2] was “no cytotoxicity”, the Cytotoxicity (human oral keratinocytes) was “no cytotoxicity” and the MIC/MFC (C. albicans; C. albicans 10^4 cells/ml) was 0.1. For the same compound, the MIC/MFC (C. albicans; C. albicans 10^5 cells/ml) was 0.1, the MIC/MFC (C. albicans; C. albicans 10^6 cells/ml) was 0.2 and the MIC/MFC (C. albicans; C. albicans 10^7 cells/ml) was 0.6. The “Protection of keratinocytes from C. albicans invasion (LIVE/DEAD, confocal)” value [3] was “able to prevent the epithelial cell damage”, the “Susceptibility (MIC90)” value (C. parapsilosis) was 1.6 µg/mL and the Antibacterial activity [4] was “not anti-bacterial”. The Antibacterial activity (Escherichia coli) was “not anti-bacterial” and the Antibacterial activity (Streptococcus mutans) was “not anti-bacterial”.
